The IC50 is the concentration that gives 50% inhibition.

15 molecules from patent US11739102B2, “Fused pyrimidine compounds as KRAS inhibitors” (Incyte Corporation, priority 2020, dated 2023) can be followed below.

The target in one test is KRAS G12C (Homo sapiens, UniProt P01116, G12C). The experiment in a line: GDP-GTP exchange assay (bodipy-GDP/GppNHp, SOS1). It counts as biochemical. The note with it: bodipy-loaded KRAS G12C 2.5 nM, SOS1 150 nM, 2 hours pre-incubation with inhibitor; read-out: G12C_exchange IC50. As for the experimental part:
The inhibitor potency of the exemplified compounds was determined in a fluorescence based guanine nucleotide exchange assay, which measures the exchange of bodipy-GDP (fluorescently labeled GDP) for GppNHp (Non-hydrolyzable GTP analog) to generate the active state of KRAS in the presence of SOS1 (guanine nucleotide exchange factor). Inhibitors were serially diluted in DMSO and a volume of 0.1 μL was transferred to the wells of a black low volume 384-well plate. 5 μL/well volume of bodipy-loaded KRAS G12C diluted to 5 nM in assay buffer (25 mM Hepes pH 7.5, 50 mM NaCl, 10 mM MgCl2 and 0.01% Brij-35) was added to the plate and pre-incubated with inhibitor for 2 hours at ambient temperature. Appropriate controls (enzyme with no inhibitor or with a G12C inhibitor (AMG-510)) were included on the plate. The exchange was initiated by the addition of a 5 μL/well volume containing 1 mM GppNHp and 300 nM SOS1 in assay buffer. The 10 μL/well reaction concentration of the bodipy-loaded KRAS G12C, GppNHp, and SOS1 were 2.5 nM, 500 uM, and 150 nM, respectively. The reaction plates were incubated at ambient temperature for 2 hours, a time estimated for complete GDP-GTP exchange in the absence of inhibitor. For the KRAS G12D and G12V mutants, similar guanine nucleotide exchange assays were used with 2.5 nM as final concentration for the bodipy loaded KRAS proteins and with 4 hours and 3 hours incubation after adding GppNHp-SOS1 mixture for G12D and G12V respectively. A cyclic peptide described to selectively bind G12D mutant (Sakamoto et al., BBRC 484.3 (2017), 605-611) or internal compounds with confirmed binding were used as positive controls in the assay plates. Fluorescence intensities were measured on a PheraStar plate reader instrument (BMG Labtech) with excitation at 485 nm and emission at 520 nm.
Either GraphPad prism or XLfit was used to analyze the data. The IC50 values were derived by fitting the data to a four parameter logistic equation producing a sigmoidal dose-response curve with a variable Hill coefficient. Prism equation: Y=Bottom+(Top−Bottom)/(1+10^((Log IC50−X)*Hill slope)); XLfit equation: Y=(A+((B−A)/(1+((X/C)^D)))) where X is the logarithm of inhibitor concentration and Y is the response.

The subject of test [1] is MIA PaCa-2 (KRAS G12C) cells. The experiment in a line: Cellular pERK HTRF assay (KRAS_G12C pERK assay). It counts as cell-based. Particulars: Homo sapiens, cells incubated with compound 4 hours, read-out: G12C_pERK IC50. As for the experimental part:
MIA PaCa-2 (KRAS G12C; ATCC® CRL-1420), A427 (KRAS G12D; ATCC® HTB53), HPAF-II (KRAS G12D; ATCC® CRL-1997) and NCI-H838 (KRAS WT; ATCC® CRL-5844) cells are purchased from ATCC and maintained in RPMI 1640 media supplemented with 10% FBS (Gibco/Life Technologies). The cells are plated at 5000 cells per well (8 uL) into Greiner 384-well low volume, flat-bottom, tissue culture treated white plates and incubated overnight at 37° C., 5% CO2. The next morning, test compound stock solutions are diluted in media at 3× the final concentration, and 4 uL are added to the cells. The plate is mixed by gentle rotation for 30 seconds (250 rpm) at room temperature. The cells are incubated with the KRAS G12C and G12D compounds for 4 hours or 2 hours respectively at 37° C., 5% CO2.
4 uL of 4× lysis buffer with blocking reagent (1:25) (Cisbio) are added to each well and plates are rotated gently (300 rpm) for 30 minutes at room temperature. 4 uL per well of Cisbio anti Phospho-ERK 1/2 d2 is mixed with anti Phospho-ERK 1/2 Cryptate (1:1) are added to each well, mixed by rotation and incubated overnight in the dark at room temperature. Plates are read on the Pherastar plate reader at 665 nm and 620 nm wavelengths. IC50 determination is performed by fitting the curve of inhibitor percent inhibition versus the log of the inhibitor concentration using the GraphPad Prism 7 software.

A value given as a limit tells only on which side of the number the result lay.

Chain of KRAS G12C (P01116 1-188 isoform P01116-2 G12C): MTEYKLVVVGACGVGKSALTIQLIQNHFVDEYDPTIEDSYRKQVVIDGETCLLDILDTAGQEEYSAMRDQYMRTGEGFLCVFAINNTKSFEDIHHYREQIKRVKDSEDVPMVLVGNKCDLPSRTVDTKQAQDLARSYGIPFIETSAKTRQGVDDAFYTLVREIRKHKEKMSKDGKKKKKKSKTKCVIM

Take `C=Cc1ncc2n1CCN(c1nc(OCCCN3CCCCC3)nc3c1CCN(c1cccc4cccc(Cl)c14)C3)C2` [Example 5, 7-(8-Chloronaphthalen-1-yl)-2-(3-(piperidin-1-yl)propoxy)-4-(3-vinyl-5,6-dihydroimidazo[1,5-a]pyrazin-7(8H)-yl)-5,6,7,8-tetrahydropyrido[3,4-d]pyrimidine]: the IC50 at KRAS G12C lay in the range of 100 to 1000 nM; in test [1], 1000 to 5000 nM. For the molecule `C=Cc1ncc2n1CCN(c1nc(OCC3(C#N)CCCC3)nc3c1CCN(c1cccc4cccc(Cl)c14)C3)C2` [Example 12, 1-(((7-(8-Chloronaphthalen-1-yl)-4-(3-vinyl-5,6-dihydroimidazo[1,5-a]pyrazin-7(8H)-yl)-5,6,7,8-tetrahydropyrido[3,4-d]pyrimidin-2-yl)oxy)methyl)cyclopentane-1-carbonitrile], on KRAS G12C, the IC50 was 1000 to 5000 nM. For the molecule `C=Cc1ncc2n1CCN(c1nc(OCCCN3CCOCC3)nc3c1CCN(c1cccc4cccc(Cl)c14)C3)C2` [Example 1, 4-(3-((7-(8-Chloronaphthalen-1-yl)-4-(3-vinyl-5,6-dihydroimidazo[1,5-a]pyrazin-7(8H)-yl)-5,6,7,8-tetrahydropyrido[3,4-d]pyrimidin-2-yl)oxy)propyl)morpholine], the IC50 on KRAS G12C was in the range of 100 to 1000 nM; in test [1], 1000 to 5000 nM. In the case of `C=Cc1ncc2n1CCN(c1nc(OCCCN3CCOCC3)nc3c1CCN(c1cc(O)cc4ccccc14)C3)C2` [Example 13, 4-(2-(3-Morpholinopropoxy)-4-(3-vinyl-5,6-dihydroimidazo[1,5-a]pyrazin-7(8H)-yl)-5,8-dihydropyrido[3,4-d]pyrimidin-7(6H)-yl)naphthalen-2-ol], at KRAS G12C, the IC50 was 1000 to 5000 nM. On to `C=Cc1ncc2n1CCN(c1nc(OC[C@H]3CCCN3C)nc3c1CCN(c1cc(O)cc4ccccc14)C3)C2` [Example 11, (R)-4-(2-((1-Methylpyrrolidin-2-yl)methoxy)-4-(3-vinyl-5,6-dihydroimidazo[1,5-a]pyrazin-7(8H)-yl)-5,8-dihydropyrido[3,4-d]pyrimidin-7(6H)-yl)naphthalen-2-ol], for which the IC50 at KRAS G12C was 100 to 1000 nM; in test [1], 1000 to 5000 nM.

In the case of `C=Cc1cnc2n1CCN(c1nc(OCCCN3CCOCC3)nc3c1CCN(c1cccc4cccc(Cl)c14)C3)C2` [Example 15, 4-(3-((7-(8-Chloronaphthalen-1-yl)-4-(3-vinyl-5,6-dihydroimidazo[1,2-a]pyrazin-7(8H)-yl)-5,6,7,8-tetrahydropyrido[3,4-d]pyrimidin-2-yl)oxy)propyl)morpholine], the IC50 on KRAS G12C lay within 1000 to 5000 nM.

With `C=Cc1ncc2n1CCN(c1nc(OCC3CCCCN3C)nc3c1CCN(c1cccc4cccc(Cl)c14)C3)C2` (centres unmarked) [Example 7, 7-(8-Chloronaphthalen-1-yl)-2-((1-methylpiperidin-2-yl)methoxy)-4-(3-vinyl-5,6-dihydroimidazo[1,5-a]pyrazin-7(8H)-yl)-5,6,7,8-tetrahydropyrido[3,4-d]pyrimidine], the IC50 on KRAS G12C lay in the range of 100 to 1000 nM. For `C=Cc1ncc2n1CCN(c1nc(OCC3CCCN(C)C3)nc3c1CCN(c1cccc4cccc(Cl)c14)C3)C2` (centres unmarked) [Example 6, 7-(8-Chloronaphthalen-1-yl)-2-((1-methylpiperidin-3-yl)methoxy)-4-(3-vinyl-5,6-dihydroimidazo[1,5-a]pyrazin-7(8H)-yl)-5,6,7,8-tetrahydropyrido[3,4-d]pyrimidine], the IC50 was in the range of 100 to 1000 nM on KRAS G12C and 1000 to 5000 nM in test [1]. In the case of `C=Cc1cnc2n1CCN(c1nc(OC[C@@H]3CCCN3C)nc3c1CCN(c1cccc4cccc(Cl)c14)C3)C2` [Example 14, (S)-7-(8-Chloronaphthalen-1-yl)-2-((1-methylpyrrolidin-2-yl)methoxy)-4-(3-vinyl-5,6-dihydroimidazo[1,2-a]pyrazin-7(8H)-yl)-5,6,7,8-tetrahydropyrido[3,4-d]pyrimidine], the IC50 on KRAS G12C fell in the range of 1000 to 5000 nM.

With `C=Cc1ncc2n1CCN(c1nc(OC[C@@H]3CCCN3C)nc3c1CCN(c1cc(O)cc4ccccc14)C3)C2` [Example 9, (S)-4-(2-((1-Methylpyrrolidin-2-yl)methoxy)-4-(3-vinyl-5,6-dihydroimidazo[1,5-a]pyrazin-7(8H)-yl)-5,8-dihydropyrido[3,4-d]pyrimidin-7(6H)-yl)naphthalen-2-ol], the IC50 was in the range of 100 to 1000 nM at KRAS G12C and 1000 to 5000 nM in test [1].

Turning to `C=Cc1ncc2n1CCN(c1nc(OCCCN3CCOCC3)nc3c1CCN(c1cccc4ccccc14)C3)C2` [Example 2, 4-(3-((7-(Naphthalen-1-yl)-4-(3-vinyl-5,6-dihydroimidazo[1,5-a]pyrazin-7(8H)-yl)-5,6,7,8-tetrahydropyrido[3,4-d]pyrimidin-2-yl)oxy)propyl)morpholine], the values for the IC50 (at KRAS G12C; in test [1]) were ≤ 100 nM and 1000 to 5000 nM, respectively. Regarding `C=Cc1ncc2n1CCN(c1nc(OCCC3CCCN3C)nc3c1CCN(c1cccc4cccc(Cl)c14)C3)C2` (centres unmarked) [Example 8, 7-(8-Chloronaphthalen-1-yl)-2-(2-(1-methylpyrrolidin-2-yl)ethoxy)-4-(3-vinyl-5,6-dihydroimidazo[1,5-a]pyrazin-7(8H)-yl)-5,6,7,8-tetrahydropyrido[3,4-d]pyrimidine], the IC50 at KRAS G12C lay in the range of 100 to 1000 nM. As to `C=Cc1ncc2n1CCN(c1nc(OC[C@@H]3CCCN3C)nc3c1CCN(c1cccc4cccc(Cl)c14)C3)C2` [Example 4, (S)-7-(8-Chloronaphthalen-1-yl)-2-((1-methylpyrrolidin-2-yl)methoxy)-4-(3-vinyl-5,6-dihydroimidazo[1,5-a]pyrazin-7(8H)-yl)-5,6,7,8-tetrahydropyrido[3,4-d]pyrimidine], the IC50 on KRAS G12C lay within 100 to 1000 nM; in test [1], 1000 to 5000 nM.

With `C=Cc1ncc2n1CCN(c1nc(OC[C@@H]3CCCN3Cc3ccccc3)nc3c1CCN(c1cccc4cccc(Cl)c14)C3)C2` [Example 10, (S)-2-((1-Benzylpyrrolidin-2-yl)methoxy)-7-(8-chloronaphthalen-1-yl)-4-(3-vinyl-5,6-dihydroimidazo[1,5-a]pyrazin-7(8H)-yl)-5,6,7,8-tetrahydropyrido[3,4-d]pyrimidine], the IC50 on KRAS G12C is 100 to 1000 nM. Take `C=Cc1ncc2n1CCN(c1nc(OC[C@@H]3CCCN3C)nc3c1CCN(c1cccc4ccccc14)C3)C2` [Example 3, (S)-2-((1-Methylpyrrolidin-2-yl)methoxy)-7-(naphthalen-1-yl)-4-(3-vinyl-5,6-dihydroimidazo[1,5-a]pyrazin-7(8H)-yl)-5,6,7,8-tetrahydropyrido[3,4-d]pyrimidine]: the values for the IC50 (at KRAS G12C; in test [1]) were ≤ 100 nM and 1000 to 5000 nM, respectively.
